The source of these data is patent publication US12473298B2, “Amide compounds, preparation method therefor, and use thereof in the medical field” (Shanghai Synergy Pharmaceutical Sciences Co., Ltd., priority 2019, dated 2025).

One data set has as its target wild-type EZH2 (Homo sapiens (Human), UniProt Q15910). The experiment in a line: radiometric assay, activity to wild-type EZH2 of PRC2.
The target in a further data set is Mutant type EZH2(Y641F) (Homo sapiens (Human), UniProt Q15910, Y641F). The experiment in a line: AlphaLISA, mutant type PRC2 complex EZH2(Y641F). Format: biochemical. Conditions: read-out: Mutant type EZH2(Y641F) IC50 Nanomoles per Liter. (Bead proximity is the source of the signal in Alpha formats.)
Sequence of Mutant type EZH2(Y641F) (Q15910 whole entry Y641F): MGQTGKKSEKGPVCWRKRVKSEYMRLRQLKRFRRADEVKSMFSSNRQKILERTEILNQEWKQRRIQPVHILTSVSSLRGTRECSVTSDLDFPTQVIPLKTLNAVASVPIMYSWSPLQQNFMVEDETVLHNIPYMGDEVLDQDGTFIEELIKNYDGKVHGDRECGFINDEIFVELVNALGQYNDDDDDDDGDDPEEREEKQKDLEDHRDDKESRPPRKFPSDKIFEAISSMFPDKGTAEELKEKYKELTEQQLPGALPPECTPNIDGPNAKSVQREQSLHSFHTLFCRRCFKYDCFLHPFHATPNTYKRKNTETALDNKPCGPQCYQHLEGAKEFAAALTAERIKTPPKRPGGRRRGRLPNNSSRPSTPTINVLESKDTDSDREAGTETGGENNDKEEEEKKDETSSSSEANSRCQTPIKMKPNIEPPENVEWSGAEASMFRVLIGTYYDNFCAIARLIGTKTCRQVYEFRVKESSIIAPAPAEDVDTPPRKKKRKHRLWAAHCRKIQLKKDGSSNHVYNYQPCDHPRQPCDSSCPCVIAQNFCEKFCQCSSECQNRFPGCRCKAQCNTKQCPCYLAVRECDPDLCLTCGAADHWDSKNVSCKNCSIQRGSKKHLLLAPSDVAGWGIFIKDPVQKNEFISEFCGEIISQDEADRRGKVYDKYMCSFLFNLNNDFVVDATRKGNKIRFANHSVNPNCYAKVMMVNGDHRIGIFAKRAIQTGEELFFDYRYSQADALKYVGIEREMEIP
Sequence of Mutant type EZH2(Y641F) (O75530 whole entry partner): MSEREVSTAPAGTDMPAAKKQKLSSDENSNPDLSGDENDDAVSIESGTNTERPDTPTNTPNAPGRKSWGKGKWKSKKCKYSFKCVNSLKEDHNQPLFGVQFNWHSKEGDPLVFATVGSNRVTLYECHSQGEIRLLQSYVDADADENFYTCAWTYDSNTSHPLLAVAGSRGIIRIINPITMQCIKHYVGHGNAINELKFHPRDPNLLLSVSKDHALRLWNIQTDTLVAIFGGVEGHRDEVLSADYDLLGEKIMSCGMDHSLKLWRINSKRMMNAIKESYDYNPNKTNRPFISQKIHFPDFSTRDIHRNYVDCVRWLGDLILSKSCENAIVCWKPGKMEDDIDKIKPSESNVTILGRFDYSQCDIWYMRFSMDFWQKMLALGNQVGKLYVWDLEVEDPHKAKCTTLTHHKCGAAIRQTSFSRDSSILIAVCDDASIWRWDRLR
Sequence of Mutant type EZH2(Y641F) (Q15022 whole entry partner): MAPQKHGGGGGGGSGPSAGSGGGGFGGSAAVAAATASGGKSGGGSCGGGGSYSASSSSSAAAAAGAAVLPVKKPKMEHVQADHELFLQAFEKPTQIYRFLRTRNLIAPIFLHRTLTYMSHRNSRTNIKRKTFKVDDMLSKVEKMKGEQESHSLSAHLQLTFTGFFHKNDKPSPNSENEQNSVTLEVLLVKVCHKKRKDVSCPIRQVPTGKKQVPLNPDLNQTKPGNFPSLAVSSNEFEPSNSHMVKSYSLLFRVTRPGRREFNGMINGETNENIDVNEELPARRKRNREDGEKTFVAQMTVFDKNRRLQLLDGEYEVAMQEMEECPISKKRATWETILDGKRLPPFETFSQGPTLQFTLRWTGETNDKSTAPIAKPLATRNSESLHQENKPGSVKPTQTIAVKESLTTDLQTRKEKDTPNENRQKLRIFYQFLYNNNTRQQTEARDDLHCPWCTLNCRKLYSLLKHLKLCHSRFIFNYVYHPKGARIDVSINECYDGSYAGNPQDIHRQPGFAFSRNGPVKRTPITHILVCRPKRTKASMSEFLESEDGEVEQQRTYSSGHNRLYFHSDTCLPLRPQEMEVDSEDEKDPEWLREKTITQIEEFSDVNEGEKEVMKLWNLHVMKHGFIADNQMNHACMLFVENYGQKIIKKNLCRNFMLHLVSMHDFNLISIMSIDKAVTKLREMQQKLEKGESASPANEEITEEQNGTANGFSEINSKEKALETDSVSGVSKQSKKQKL
Sequence of Mutant type EZH2(Y641F) (Q09028 whole entry partner): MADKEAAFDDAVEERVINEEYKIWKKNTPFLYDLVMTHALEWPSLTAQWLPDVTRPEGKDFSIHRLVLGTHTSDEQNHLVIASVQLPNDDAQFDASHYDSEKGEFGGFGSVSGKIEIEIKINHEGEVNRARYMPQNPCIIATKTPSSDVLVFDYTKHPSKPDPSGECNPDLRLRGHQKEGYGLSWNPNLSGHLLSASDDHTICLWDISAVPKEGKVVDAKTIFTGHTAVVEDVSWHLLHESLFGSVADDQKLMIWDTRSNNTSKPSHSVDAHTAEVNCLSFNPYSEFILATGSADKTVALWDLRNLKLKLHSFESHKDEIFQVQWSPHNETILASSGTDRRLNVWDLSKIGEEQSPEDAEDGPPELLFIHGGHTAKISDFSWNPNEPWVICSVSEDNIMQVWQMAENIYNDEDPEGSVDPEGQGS
Sequence of Mutant type EZH2(Y641F) (Q6ZN18 whole entry partner): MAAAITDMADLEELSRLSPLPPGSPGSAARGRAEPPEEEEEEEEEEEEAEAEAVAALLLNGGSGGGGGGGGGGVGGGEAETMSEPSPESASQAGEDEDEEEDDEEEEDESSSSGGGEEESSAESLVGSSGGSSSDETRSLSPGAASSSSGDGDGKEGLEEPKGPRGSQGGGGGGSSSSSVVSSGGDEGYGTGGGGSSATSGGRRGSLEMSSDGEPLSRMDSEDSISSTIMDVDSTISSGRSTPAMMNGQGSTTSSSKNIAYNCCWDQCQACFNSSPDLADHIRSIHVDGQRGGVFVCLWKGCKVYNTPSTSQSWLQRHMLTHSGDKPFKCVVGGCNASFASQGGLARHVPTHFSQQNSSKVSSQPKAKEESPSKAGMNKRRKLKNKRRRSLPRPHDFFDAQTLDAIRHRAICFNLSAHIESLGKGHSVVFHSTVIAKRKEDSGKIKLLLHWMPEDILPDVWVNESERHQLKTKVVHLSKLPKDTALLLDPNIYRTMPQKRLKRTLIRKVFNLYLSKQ
The target of a further data set is Mutant type EZH2(A677G) (Homo sapiens (Human), UniProt Q15910, A677G). The experiment in a line: AlphaLISA, mutant type PRC2 complex EZH2(A677G). The format is biochemical.
Sequence of Mutant type EZH2(A677G) (Q15910 whole entry A677G): as the sequence (Q15910 whole entry Y641F) above, with F641Y, A677G counted along it
Sequence of Mutant type EZH2(A677G) (O75530 whole entry partner): as the sequence (O75530 whole entry partner) above
Sequence of Mutant type EZH2(A677G) (Q15022 whole entry partner): as the sequence (Q15022 whole entry partner) above
Sequence of Mutant type EZH2(A677G) (Q09028 whole entry partner): as the sequence (Q09028 whole entry partner) above
Sequence of Mutant type EZH2(A677G) (Q6ZN18 whole entry partner): as the sequence (Q6ZN18 whole entry partner) above
Data set [1] is described as follows: Pharmacokinetic experiment in rats. The format is in vivo, SD rats. Conditions: for AUC: read-out: Area Curve (AUC, ng/mL · h). As to the method: A certain amount of compound was weighted and dissolved in 0.1% Tween under vortex and ultrasound, and 0.5% carboxymethyl cellulose sodium (CMC-NA) solution was added to form a uniform solution.
The subject of data set [2] is human diffuse large cell lymphoma B lymphocytes (Pfeiffer cell). Briefly: Pfeiffer cell proliferation, Calcein AM staining. The format is cell-based.
Text: The diffuse large cell lymphoma B lymphocytes (Pfeiffer cells) were collected and counted when growing well.
The test system of data set [3] is human diffuse large B-cell lymphoma cells (Karpas 422 cell). The experiment in a line: Karpas 422 cell proliferation, Calcein AM staining. The format is cell-based.
The target of a further data set is Mutant type EZH2(Y641N) (Homo sapiens (Human), UniProt Q15910, Y641N). The experiment in a line: AlphaLISA, mutant type PRC2 complex EZH2(Y641N). Format: biochemical. Particulars: read-out: Mutant type EZH2(Y641N) IC50 Nanomoles per Liter.
Sequence of Mutant type EZH2(Y641N) (Q15910 whole entry Y641N): as the sequence (Q15910 whole entry Y641F) above, with F641N counted along it
Sequence of Mutant type EZH2(Y641N) (O75530 whole entry partner): as the sequence (O75530 whole entry partner) above
Sequence of Mutant type EZH2(Y641N) (Q15022 whole entry partner): as the sequence (Q15022 whole entry partner) above
Sequence of Mutant type EZH2(Y641N) (Q09028 whole entry partner): as the sequence (Q09028 whole entry partner) above
Sequence of Mutant type EZH2(Y641N) (Q6ZN18 whole entry partner): as the sequence (Q6ZN18 whole entry partner) above
Where [4] appears, read: read-out: Mutant type EZH2(A677G) IC59 Nanomoles per Liter.
Where [5] appears, read: Homo sapiens, Pfeiffer, data of 14th day, read-out: Pfeiffer Proliferation IC50 Nanomoles per Liter.
[6] abbreviates: Homo sapiens, KARPAS-422, data of 14th day, read-out: Karpas422 Proliferation IC50 Nanomoles per Liter.
Where [7] appears, read: read-out: Wild-type EZH2 IC50 Nanomoles per Liter.
[8] abbreviates: Homo sapiens, Pfeiffer, read-out: Pfeiffer Proliferation IC50 Nanomoles per Liter (nM).
Where [9] appears, read: Homo sapiens, KARPAS-422, read-out: Karpas422 Proliferation IC50 Nanomoles per Liter (nM).

The structures appear in SMILES notation. Read-outs that look alike come from different tables or passages of the source.

Sequence of wild-type EZH2 (Q15910 whole entry): as the sequence (Q15910 whole entry Y641F) above, with F641Y counted along it
Sequence of wild-type EZH2 (O75530 whole entry partner): as the sequence (O75530 whole entry partner) above
Sequence of wild-type EZH2 (Q15022 whole entry partner): as the sequence (Q15022 whole entry partner) above
Experimental for wild-type EZH2: 25 μL of reaction solution was transferred to a scintillation plate, which was incubated at room temperature for 1 hour (h) and washed with deionized water and 0.1% Tween 20 for three times. A PerkinElmer liquid scintillation/luminescence counter was used to read the value, and GraphPad Prism 5 was used to calculate the median inhibitory concentration (IC50) of the compounds.

Turning to `CCN(c1cc(-c2ccc3c(c2)N(C(C)C(C)C)CC32CCOCC2)c(Cl)c(C(=O)NCc2c(C)cc(C)[nH]c2=O)c1C)C1CCOCC1` (centres unmarked) [Example 55, 2-chloro-N-((4,6-dimethyl-2-oxo-1,2-dihydropyridin-3-yl)methyl)-5-(ethyl(tetrahydro-2H-pyran-4-yl)amino)-6-methyl-3-(1-(3-methylbutyl-2-yl)-2′,3′,5′,6′-tetrahydrospiro[dihydroindole-3,4′-pyran]-6-yl)benzamide], the IC50 at wild-type EZH2 is 0.63 nM; at Mutant type EZH2(Y641F) it was 0.58 nM; on Mutant type EZH2(A677G) (setting [4]), 0.42 nM; in data set [2] (setting [5]), 0.65 nM; in data set [3] (setting [6]) it was 0.97 nM; at Mutant type EZH2(Y641N), 0.3 nM. In addition, the AUC in data set [1] (male, SD, rat, plasma, rats, Intravenous-Dose 4 mg/kg) amounted to 933 ng·h/mL; in data set [1] (male, SD, rat, plasma, rats, Oral-Dose 20 mg/kg), 1270 ng·h/mL. For the same molecule, the half-life in data set [1] (male, SD, rat, plasma; rats, Intravenous-Dose 4 mg/kg; read-out: Half life T1/2, h) (converted)) was 1.53 h. In addition, in data set [1] (male, SD, rat, plasma, rats, Oral-Dose 20 mg/kg, read-out: Blood Drug level (Cmax, ng/mL)), the Cmax was determined as 438 ng/mL. The bioavailability (as a rule, dose-corrected exposure relative to a reference, in per cent) in data set [1] (male, SD, rat, plasma, rats, oral 20 mg/kg vs intravenous 4 mg/kg, read-out: Bioavailability (P %)) turned out to be 27.1%.

On to `CCN(c1cc(-c2ccc3c(c2)NC(=O)C32CCC(F)(F)CC2)cc(C(=O)NCc2c(C)cc(C)[nH]c2=O)c1C)C1CCOCC1` [Example 91, 5-(4,4-difluoro-2′-oxospiro[cyclohexane-1,3′-dihydroindole]-6′-yl)-N-((4,6-dimethyl-2-oxo-1,2-dihydropyridin-3-yl)methyl)-3-(ethyl(tetrahydro-2H-pyran-4-yl)amino)-2-methylbenzamide], for which the IC50 is 0.95 nM on wild-type EZH2 (setting [7]); 0.49 nM at Mutant type EZH2(Y641F); 0.71 nM at Mutant type EZH2(A677G) (setting [4]); 1.08 nM in data set [2] (setting [5]); 1.87 nM in data set [3] (setting [6]); 0.24 nM at Mutant type EZH2(Y641N).

Take `CCN(c1cc(-c2ccc3c(c2)NC(=O)C32CCC(=O)CC2)cc(C(=O)NCc2c(C)cc(C)[nH]c2=O)c1C)C1CCOCC1` [Example 92, N-((4,6-Dimethyl-2-oxo-1,2-dihydropyridin-3-yl)methyl)-5-(2′,4-dioxospiro[cyclohexane-1,3′-dihydroindole]-6′-yl)-3-(ethyl(tetrahydro-2H-pyran-4-yl)amino)-2-methylbenzamide]: the IC50 is 0.87 nM on wild-type EZH2 (setting [7]); 0.68 nM on Mutant type EZH2(Y641F); 0.57 nM at Mutant type EZH2(A677G) (setting [4]); 1.83 nM in data set [2] (setting [5]); 2.83 nM in data set [3] (setting [6]); 0.37 nM at Mutant type EZH2(Y641N).

Turning to `CCN(c1cc(-c2ccc3c(c2)NC(=O)C32CCC(O)CC2)cc(C(=O)NCc2c(C)cc(C)[nH]c2=O)c1C)C1CCOCC1` (centres unmarked) [Example 94, N-((4,6-dimethyl-2-oxo-1,2-dihydropyridin-3-yl)methyl)-3-(ethyl(tetrahydro-2H-pyran-4-yl)amino)-5-(4-hydroxy-2′-oxospiro[cyclohexane-1,3′-dihydroindole]-6′-yl)-2-methylbenzamide], the IC50 at wild-type EZH2 (setting [7]) was 1.31 nM; on Mutant type EZH2(Y641F), 0.73 nM; on Mutant type EZH2(A677G) (setting [4]), 0.77 nM; in data set [2] (setting [5]), 3.83 nM; in data set [3] (setting [6]) it was 4.74 nM; at Mutant type EZH2(Y641N) it was 0.62 nM.

As for `CCN(c1cc(-c2ccc3c(c2)NC(=O)C32CCNCC2)cc(C(=O)NCc2c(C)cc(C)[nH]c2=O)c1C)C1CCSCC1` [Example 97, N-((4,6-Dimethyl-2-oxo-1,2-dihydropyridin-3-yl)methyl)-3-(ethyl(tetrahydro-2H-thiapyran-4-yl)amino)-2-methyl-5-(2-oxospiro[dihydroindole-3,4′-piperidine]-6-yl)benzamide], the IC50 on wild-type EZH2 (setting [7]) was 0.85 nM; at Mutant type EZH2(Y641F) it was 0.59 nM; on Mutant type EZH2(A677G) (setting [4]), 0.38 nM; in data set [2] (setting [5]) it was 1.53 nM; in data set [3] (setting [6]), 2.7 nM; on Mutant type EZH2(Y641N), 0.37 nM.

Turning to `CCN(c1cc(-c2ccc3c(c2)NC(=O)C32CCOCC2)cc(C(=O)NCc2c(OC)cc(C)[nH]c2=O)c1C)C1CCC(N(C)C)CC1` (centres unmarked) [Example 100], the IC50 on wild-type EZH2 was 1.05 nM; on Mutant type EZH2(Y641F) it was 0.79 nM; at Mutant type EZH2(A677G) (setting [4]) it was 0.78 nM; in data set [2] (setting [5]), 2.73 nM; in data set [3] (setting [6]) it was 2.85 nM; at Mutant type EZH2(Y641N), 0.42 nM.

Turning to `CCN(c1cc(-c2cnc3c(c2)NC(=O)C32CCOCC2)cc(C(=O)NCc2c(C)cc(C)[nH]c2=O)c1C)C1CCOCC1` [Example 101, N-((4,6-Dimethyl-2-oxo-1,2-dihydropyridin-3-yl)methyl)-3-(ethyl(tetrahydro-2H-pyran-4-yl)amino)-2-methyl-5-(2′-oxo-1′,2,2′,3,5,6-hexahydrospiro[pyran-4,3′-pyrrolo[3,2-b]pyridine]-6′-yl)benzamide], the IC50 at wild-type EZH2 (setting [7]) was 1.16 nM; at Mutant type EZH2(Y641F), 0.95 nM; at Mutant type EZH2(A677G) (setting [4]), 0.82 nM; in data set [2] (setting [5]) it was 2.74 nM; in data set [3] (setting [6]), 3.68 nM; at Mutant type EZH2(Y641N), 0.57 nM.

As to `CCN(c1cc(-c2ccc3c(c2)NC(=O)C32CCOCC2)cc(C(=O)NCc2c(C)cc(C)[nH]c2=O)c1C)C1CCOCC1OC` (centres unmarked) [Example 102, N-((4,6-Dimethyl-2-oxo-1,2-dihydropyridin-3-yl)methyl)-3-((ethyl)(3-methoxytetrahydro-2H-pyran-4-yl)amino)-2-methyl-5-(2-oxo-2′,3′,5′,6′-tetrahydrospiro[dihydroindole-3,4′-pyran]-6-yl)benzamide], the IC50 on wild-type EZH2 (setting [7]) is 0.96 nM; at Mutant type EZH2(Y641F) it was 0.89 nM; on Mutant type EZH2(A677G) (setting [4]), 0.73 nM; in data set [2] (setting [5]), 3.45 nM; in data set [3] (setting [6]), 3.87 nM; at Mutant type EZH2(Y641N), 0.45 nM.

On to `CCN(c1cc(-c2ccc3c(c2)C2(CC=C(F)CC2)C(=O)N3)cc(C(=O)NCc2c(C)cc(C)[nH]c2=O)c1C)C1CCOCC1` (centres unmarked) [Example 118, N-((4,6-dimethyl-2-carbonyl-1,2-dihydropyridin-3-yl)methyl)-3-(ethyl(tetrahydro-2H-pyran-4-yl)amino)-5-(4-fluoro-2′-carbonylspiro[cyclohexano-1,3′-dihydroindole]-3-ene-5′-yl)-2-methylbenzamide], for which the IC50 on wild-type EZH2 was 0.91 nM; on Mutant type EZH2(Y641F), 0.58 nM; at Mutant type EZH2(A677G), 0.45 nM; in data set [2] (setting [8]), 1.05 nM; in data set [3] (setting [9]), 1.68 nM; on Mutant type EZH2(Y641N) it was 0.32 nM.

In the case of `CCN(c1cc(-c2ccc3c(c2)C2(CCC(F)CC2)C(=O)N3)cc(C(=O)NCc2c(C)cc(C)[nH]c2=O)c1C)C1CCOCC1` (centres unmarked) [Example 119, 5-(4-Fluoro-2′-carbonylspiro[cyclohexano-1,3′-dihydroindole]-5′-yl)-N-((4,6-dimethyl-2-carbonyl-1,2-dihydropyridin-3-yl)methyl)-3-(ethyl(tetrahydro-2H-pyran-4-yl)amino)-2-methylbenzamide], the IC50 on wild-type EZH2 was 0.98 nM; at Mutant type EZH2(Y641F), 0.95 nM; against Mutant type EZH2(A677G), 0.76 nM; in data set [2] (setting [8]), 3.52 nM; in data set [3] (setting [9]), 4.15 nM; on Mutant type EZH2(Y641N) it was 0.63 nM.

On to `CCN(c1cc(-c2ccc3c(c2)NC(=O)C32CCOCC2)cc(C(=O)NCc2c(OC)cc(C)[nH]c2=O)c1C)C1CCC(N(C)CCOC)CC1` (centres unmarked) [Example 120, 3-(Ethyl(4-((2-methoxyethyl)(methyl)amino)cyclohexyl)amino)-N-((4-methoxy-6-methyl-2-oxo-1,2-dihydropyridin-3-yl)methyl)-2-methyl-5-(2-oxo-2′,3′,5′,6′-tetrahydrospiro[dihydroindole-3,4′-pyran]-6-yl)benzamide], for which the IC50 on wild-type EZH2 (setting [7]) is 1.26 nM; at Mutant type EZH2(Y641F), 0.68 nM; on Mutant type EZH2(A677G) (setting [4]) it was 0.53 nM; in data set [2] (setting [5]) it was 2.96 nM; in data set [3] (setting [6]), 4.47 nM; at Mutant type EZH2(Y641N), 0.48 nM.

Consider `CCN(c1cc(-c2ccc3c(c2)NC(=O)C32CCOCC2)cc(C(=O)NCc2c(C)cc(C)[nH]c2=O)c1C)C1CCC(N(C)C2COC2)CC1` (centres unmarked) [Example 121, N-((4,6-dimethyl-2-oxo-1,2-dihydropyridin-3-yl)methyl)-3-(ethyl(4-(methyl(oxetan-3-yl)amino)cyclohexyl)amino)-2-methyl-5-(2-oxo-2′,3′,5′,6′-tetrahydrospiro[dihydroindole-3,4′-pyran]-6-yl)benzamide], for which the IC50 was 1.04 nM at wild-type EZH2 (setting [7]); 0.74 nM at Mutant type EZH2(Y641F); 0.68 nM on Mutant type EZH2(A677G) (setting [4]); 2.36 nM in data set [2] (setting [5]); 3.54 nM in data set [3] (setting [6]); 0.53 nM at Mutant type EZH2(Y641N).

Turning to `CCN(c1cc(-c2ccc3c(c2)C2(CCOCC2)C(=O)N3C)cc(C(=O)NCc2c(OC)cc(C)[nH]c2=O)c1C)C1CCN(CC(F)(F)F)CC1` [Example 123, 3-(Ethyl(1-(2,2,2-trifluoroethyl)piperidin-4-yl)amino)-N-((4-methoxy-6-methyl-2-oxo-1,2-dihydropyridin-3-yl)methyl)-2-methyl-5-(1-methyl-2-oxo-2′,3′,5′,6′-tetrahydrospiro[dihydroindole-3,4′-pyran]-5-yl)benzamide], the IC50 on wild-type EZH2 (setting [7]) is 1.15 nM; on Mutant type EZH2(Y641F), 0.92 nM; on Mutant type EZH2(A677G) (setting [4]), 0.72 nM; in data set [2] (data of 14th day, read-out: Pfeiffer Proliferation IC50 Nanomoles per Liter), 2.84 nM; in data set [3] (data of 14th day, read-out: Karpas422 Proliferation IC50 Nanomoles per Liter), 3.23 nM; at Mutant type EZH2(Y641N) it was 0.52 nM.
